Assay results as given in US8053426B2, “Progesterone receptor antagonists” (Bayer Schering Pharma AG, priority 2006, dated 2011).

Assays:
[1] = Metabolic stability in human liver microsomes (HLM); format: in vitro ADME; settings: 60 minutes, 37° C.
Description: Human liver microsomes (HLM) were used to assess the metabolic stability of substances of general formula I.
The incubations were carried out in duplicate with HLM and an NADPH-generating system using a shaker bath at 37° C. The incubation mixture (consisting of cofactor solution, potassium phosphate buffer and microsome preparation) was freshly prepared according to the Table below.
The incubation volume was 0.25 ml. The incubation mixture was preincubated for three minutes at 37° C. The reaction was started by the addition of the test substance (final concentration 50 μM). The reaction was ended after an incubation time of 60 minutes by the addition of 250 μl of methanol and the mixture was then centrifuged to pellet the protein. The samples were stored at −18° C. for subsequent RP-HPLC analysis.
The incubation volume was 0.25 ml. The incubation mixture was preincubated for three minutes at 37° C. The reaction was started by the addition of the test substance (final concentration 10 μM). The reaction was ended after an incubation time of 60 minutes by the addition of 250 μl of methanol and the mixture was then centrifuged to pellet the protein. The samples were stored at −18° C. for subsequent RP-HPLC analysis.

pregnant rats = test: Abortion test on female rats; format: in vivo, rat; settings: 1.5 mg/kg subcutaneously daily d5-d7 p.c., autopsy d9 p.c.
Description: The antigestagenic action of the progesterone receptor antagonists according to the invention was tested on pregnant rats (6 rats per group) on days 5 to 7 post coitum under conventional housing and feeding conditions.
After successful copulation, the pregnant animals (presence of sperm in the vaginal smear on day 1 of pregnancy=d1 p.c.) were randomized and divided up into the treatment group and the control group. Each animal was then injected subcutaneously with 1.5 mg/kg of the test substance (11β-[4-(1,2-Dihydroxyethyl)phenyl]-20,20,21,21,21-pentafluoro-17-hydroxy-19-nor-17α-pregna-4,9-dien-3-one according to Example 1 or 20,20,21,21,21-pentafluoro-17-hydroxy-11β-[4-(hydroxyacetyl)phenyl]-19-nor-17α-pregna-4,9-dien-3-one according to Example 3) or 1.0 ml/kg of vehicle (benzyl benzoate/castor oil: 1+4[v/v]) daily from day 5 to day 7 (d5-d7 p.c.).
The autopsy was performed on day 9 (d9 p.c.). As the parameter of antigestagenic action, the uterus was examined for the presence of implantation sites. The complete absence of implantation sites as well as the presence of pathological, hemorrhagic or otherwise abnormal implantation sites on day 9 (d9 p.c.) were evaluated as abortions.

[2] = target: T1, human progesterone receptor B (PR-B) (Homo sapiens, UniProt P06401); test: Agonistic activity, MTV-LUC reporter in SK-N-MC cells stably transfected with PR-B; format: cell-based; settings: 24 hours; for Efficacy, PR-B: relative LUC activity
T1 construct: expressed in transfected cells; host or cells: SK-N-MC human neuroblastoma cells, stably transfected with pRChPR-B-neo and pMMTV-LUC
T1 sequence (P06401 1-933): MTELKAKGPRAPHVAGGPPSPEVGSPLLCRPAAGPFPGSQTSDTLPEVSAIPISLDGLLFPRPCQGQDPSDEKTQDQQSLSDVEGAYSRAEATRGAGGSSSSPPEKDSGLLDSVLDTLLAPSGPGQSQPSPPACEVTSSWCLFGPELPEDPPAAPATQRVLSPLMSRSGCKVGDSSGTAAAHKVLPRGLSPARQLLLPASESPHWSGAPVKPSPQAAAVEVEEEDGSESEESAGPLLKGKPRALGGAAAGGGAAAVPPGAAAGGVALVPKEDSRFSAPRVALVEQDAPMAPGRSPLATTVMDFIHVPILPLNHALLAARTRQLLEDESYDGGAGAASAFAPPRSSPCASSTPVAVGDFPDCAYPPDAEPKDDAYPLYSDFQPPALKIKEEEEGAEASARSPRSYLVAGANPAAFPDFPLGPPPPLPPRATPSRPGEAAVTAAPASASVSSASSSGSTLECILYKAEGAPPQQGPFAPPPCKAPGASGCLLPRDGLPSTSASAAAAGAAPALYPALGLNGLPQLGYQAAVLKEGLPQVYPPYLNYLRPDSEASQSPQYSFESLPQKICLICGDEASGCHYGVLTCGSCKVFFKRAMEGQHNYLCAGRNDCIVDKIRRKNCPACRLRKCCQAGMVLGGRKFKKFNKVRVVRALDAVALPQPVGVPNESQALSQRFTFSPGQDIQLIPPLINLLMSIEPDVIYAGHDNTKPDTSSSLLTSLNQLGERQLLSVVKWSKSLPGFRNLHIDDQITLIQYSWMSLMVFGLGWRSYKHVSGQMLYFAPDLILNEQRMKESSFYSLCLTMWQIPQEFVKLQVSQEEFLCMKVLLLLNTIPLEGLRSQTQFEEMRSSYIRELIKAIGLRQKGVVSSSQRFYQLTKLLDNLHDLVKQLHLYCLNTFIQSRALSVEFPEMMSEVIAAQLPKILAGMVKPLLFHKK
Description: (§1) SK-N-MC cells (human neuroblastoma cells), stably transfected with plasmids, which express human progesterone receptor B (pRChPR-B-neo) or human progesterone receptor A (pRChPR-A-neo) and a reporter construct (pMMTV-LUC), were incubated for 24 hours, either in the absence (negative control) or in the presence of increasing amounts of 11β-[4-(1,2-dihydroxy-ethyl)phenyl]-20,20,21,21,21-pentafluoro-17-hydroxy-19-nor-17α-pregna-4,9-dien-3-one or 20,20,21,21,21-pentafluoro-17-hydroxy-11β-[4-(hydroxyacetyl)-phenyl]-19-nor-17α-pregna-4,9-dien-3-one (0.01 nmol/l, 0.1 nmol/l, 1 nmol/l, 10 nmol/l, 100 nmol/l and 1 μmol/l), in order to determine the agonistic efficacy. As a positive control of reporter gene induction, the cells were treated with the synthetic gestagen promegestone (0.01 nmol/l, 0.1 nmol/l, 1 nmol/l, 10 nmol/l, 100 nmol/l and 1 μmol/l). To determine the antagonistic activity, the cells were treated with 0.1 nmol/l of promegestone and additionally with increasing amounts of 11β-[4-(1,2-dihydroxyethyl)phenyl]-20,20,21,21,21-pentafluoro-17-hydroxy-19-nor-17α-pregna-4,9-dien-3-one or 20,20,21,21,21-pentafluoro-17-hydroxy-11β-[4-(hydroxyacetyl)phenyl]-19-nor-17α-pregna-4,9-dien-3-one (0.01 nmol/l, 0.1 nmol/l, 1 nmol/l, 10 nmol/l, 100 nmol/l and 1 μmol/l). […] The activity of the LUC reporter gene (LUC=luciferase) was determined in the cell lyzates and measured as RLU (relative light units).

35-day-old rabbits = test: Determination of the McPhail index on the rabbit; format: in vivo; settings: 3 mg/kg/d test substance + 0.2 mg/kg/d progesterone s.c. day 7 to 10, autopsy day 11, 1=no, 4=maximum glandular differentiation
Description: The antigestagenic efficacy of the progesterone receptor antagonists according to the invention was tested on 35-day-old rabbits under conventional housing and feeding conditions.
As a preparatory measure, the animals were treated subcutaneously with 5.0 μg/kg/d with 17β-estradiol from day 1 to day 4. To determine the antigestagenic efficacy, the animals were treated subcutaneously from day 7 to day 10 with 0.2 mg/kg/d of progesterone and 3 mg/kg/d of the test substance (11β-[4-(1,2-Dihydroxyethyl)phenyl]-20,20,21,21,21-pentafluoro-17-hydroxy-19-nor-17α-pregna-4,9-dien-3-one according to Example 1 or 20,20,21,21,21-pentafluoro-17-hydroxy-11β-[4-(hydroxyacetyl)phenyl]-19-nor-17α-pregna-4,9-dien-3-one according to Example 3) simultaneously. The vehicle used was a mixture of benzyl benzoate and castor oil in a ratio of 1+4 (v/v).
The autopsy was performed on day 11 after the start of treatment. The uteri were removed and fixed for histology. The McPhail index (degree of glandular differentiation) was determined by means of light microscopy (evaluation: 1=no glandular differentiation; 4=maximum glandular differentiation) as the parameter of antigestagenic efficacy (inhibition of the glandular differentiation caused by progesterone).

[3] = target: T2, human progesterone receptor A (PR-A) (Homo sapiens, UniProt P06401); test: Antagonistic activity against promegestone, MTV-LUC reporter in SK-N-MC cells stably transfected with PR-A; format: cell-based; settings: for selectivity in respect of one progesterone receptor isoform: PR-A versus PR-B; for selectivity in respect of one progesterone receptor isoform / Efficacy, PR-A / IC50: SK-N-MC cells; for Efficacy, PR-A / IC50: antagonistic activity vs 0.1 nmol/l promegestone, mean ± SD; for IC50: read-out: Potency IC50, PR-A; for times less potent than 11β-(4-acetylphenyl)-20,20,21,21,21-pentafluoro-17-hydroxy-19-nor-17α-pregna-4,9-dien-3-one at the progesterone receptors: antagonistic potency, figures match the ratio of the PR-A IC50 values
T2 construct: expressed in transfected cells; host or cells: SK-N-MC human neuroblastoma cells, stably transfected with pRChPR-A-neo and pMMTV-LUC
T2 sequence (P06401 1-769 isoform P06401-2): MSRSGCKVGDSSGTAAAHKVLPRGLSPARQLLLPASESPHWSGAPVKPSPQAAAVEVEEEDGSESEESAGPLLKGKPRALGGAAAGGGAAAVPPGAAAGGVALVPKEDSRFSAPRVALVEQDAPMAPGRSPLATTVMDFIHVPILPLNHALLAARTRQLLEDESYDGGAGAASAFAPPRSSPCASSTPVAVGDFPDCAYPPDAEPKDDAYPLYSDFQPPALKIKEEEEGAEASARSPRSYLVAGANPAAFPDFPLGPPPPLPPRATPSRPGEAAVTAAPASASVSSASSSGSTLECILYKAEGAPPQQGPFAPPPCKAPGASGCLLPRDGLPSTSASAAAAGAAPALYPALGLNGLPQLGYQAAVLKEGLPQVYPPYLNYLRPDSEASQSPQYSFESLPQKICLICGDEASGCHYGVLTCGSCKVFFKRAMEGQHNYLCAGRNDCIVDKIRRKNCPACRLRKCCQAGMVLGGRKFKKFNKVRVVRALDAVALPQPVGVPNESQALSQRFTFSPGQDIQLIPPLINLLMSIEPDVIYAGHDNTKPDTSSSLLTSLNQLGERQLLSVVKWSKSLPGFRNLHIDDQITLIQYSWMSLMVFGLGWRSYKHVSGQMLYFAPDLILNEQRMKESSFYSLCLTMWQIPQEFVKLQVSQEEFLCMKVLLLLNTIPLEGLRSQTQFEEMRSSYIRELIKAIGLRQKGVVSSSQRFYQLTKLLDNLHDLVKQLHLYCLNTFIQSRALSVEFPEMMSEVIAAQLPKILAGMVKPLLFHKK
Description: as §1

[4] = target: T2, human progesterone receptor A (PR-A); test: Agonistic activity, MTV-LUC reporter in SK-N-MC cells stably transfected with PR-A; format: cell-based; settings: 24 hours; for Efficacy, PR-A: relative LUC activity
Description: as §1

[5] = target: T1, human progesterone receptor B (PR-B); test: Antagonistic activity against promegestone, MTV-LUC reporter in SK-N-MC cells stably transfected with PR-B; format: cell-based; settings: antagonistic activity vs 0.1 nmol/l promegestone, mean ± SD; for IC50: read-out: Potency IC50, PR-B
Description: as §1

[6] = HLM 1.0 mg/ml, test substance 50 μM

Compound	recovered in the supernatant (RP-HPLC) [1, 6]	Abortion rate (pregnant rats)	Efficacy, PR-B [2]	McPhail index [median] (35-day-old rabbits)	selectivity in respect of one progesterone receptor isoform [3]	Efficacy, PR-A [3]	IC50 [3]	times less potent than 11β-(4-acetylphenyl)-20,20,21,21,21-pentafluoro-17-hydroxy-19-nor-17α-pregna-4,9-dien-3-one at the progesterone receptors [3]	Efficacy, PR-A [4]	Efficacy, PR-B [5]	IC50 [5]	EC50 ([2]; mean ± SD, read-out: Potency EC50, PR-B)	EC50 ([4]; mean ± SD, read-out: Potency EC50, PR-A)	recovered in the supernatant (RP-HPLC) ([1]; HLM 0.4 mg/ml, test substance 10 μM)
C[C@]12C[C@H](c3ccc(C(=O)CO)cc3)C3=C4CCC(=O)C=C4CC[C@H]3[C@@H]1CC[C@@]2(O)C(F)(F)C(F)(F)F [Example 3, 20,20,21,21,21-pentafluoro-17-hydroxy-11β-[4-(hydroxyacetyl)phenyl]-19-nor-17α-pregna-4,9-dien-3-one]	about 80%	100%	no effect	1.0	Neither compound exhibits any selectivity	100 ± 0%	0.18 ± 0.06 nM	about 13 times	no effect	100 ± 0%	0.28 ± 0.08 nM	–	–	–
C[C@]12C[C@H](c3ccc(C(O)CO)cc3)C3=C4CCC(=O)C=C4CC[C@H]3[C@@H]1CC[C@@]2(O)C(F)(F)C(F)(F)F (mixture of isomers) [Example 1, 11β-[4-(1,2-dihydroxyethyl)phenyl]-20,20,21,21,21-pentafluoro-17-hydroxy-19-nor-17α-pregna-4,9-dien-3-one]	about 70%	100%	no effect	1.0	Neither compound exhibits any selectivity	100 ± 0%	1.87 ± 0.23 nM	about 130 times	no effect	100 ± 0%	3.47 ± 0.46 nM	–	–	–
CCC(=O)[C@@]1(C)CC[C@H]2[C@@H]3CCC4=CC(=O)CCC4=C3CC[C@@]21C [Promegestone, promegestone, reference compound]	–	–	100%	–	–	–	–	–	100%	–	–	0.03 nM	0.23 ± 0.03 nM	–
CC(=O)c1ccc([C@H]2C[C@@]3(C)[C@@H](CC[C@@]3(O)C(F)(F)C(F)(F)F)[C@@H]3CCC4=CC(=O)CCC4=C32)cc1 [11β-(4-acetylphenyl)-20,20,21,21,21-pentafluoro-17-hydroxy-19-nor-17α-pregna-4,9-dien-3-one, reference compound]	–	–	–	–	–	100 ± 0%	0.014 ± 0.01 nM	–	–	100 ± 0%	0.02 ± 0.01 nM	–	–	60%
